Laboratory results taken from patent US20230111310A1, “CARBOXYLIC ACID DERIVATIVE-SUBSTITUTED IMINO ARYL COMPOUND, PREPARATION METHOD THEREFOR, HERBICIDAL COMPOSITION AND USE THEREOF” (Qingdao Kingagroot Chemical Compound Co., Ltd., priority 2020, published 2023).

Experiments:
Assay in all cases: Weeding effect in post-emergence stage
Type in all cases: in vivo
Conditions in all cases: Dose 15 g/ha; level of fresh weight growth control rate
Eleusine indica = tested on: Eleusine indica
How it was run: (§1)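 Doses of 500, 250, 125, 60, 30, 15 and 7.5 g/ha, with methyl oleate synergist (1.5 liter/ha) and Tween 80 from acetone solution, applied by spray tower post-emergence (2–3 leaf stage). Weed control scored after 3 further greenhouse weeks, averaged over triplicates.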

Setaria viridis = tested on: Setaria viridis
How it was run: as §1

Alopecurus japonicus = tested on: Alopecurus japonicus
How it was run: as §1

Abutilon theophrasti = tested on: Abutilon theophrasti
How it was run: as §1

Digitaria sanguinalis = tested on: Digitaria sanguinalis
How it was run: as §1

Echinochloa crusgalli = tested on: Echinochloa crusgalli
How it was run: as §1

Structure (SMILES)	Weeding effect in post-emergence stage, Eleusine indica (Eleusine indica)	Weeding effect in post-emergence stage, Setaria viridis (Setaria viridis)	Weeding effect in post-emergence stage, Alopecurus japonicus (Alopecurus japonicus)	Weeding effect in post-emergence stage, Abutilon theophrasti (Abutilon theophrasti)	Weeding effect in post-emergence stage, Digitaria sanguinalis (Digitaria sanguinalis)	Weeding effect in post-emergence stage, Echinochloa crusgalli (Echinochloa crusgalli)
C=CCCOC(=O)[C@@H](C)O/N=C/c1cc(-n2c(=O)n(C)c(=S)n(C)c2=O)c(F)cc1Cl [6(R)]	5 (Level 5: growth control rate is above 85%)	5 (Level 5: growth control rate is above 85%)	5 (Level 5: growth control rate is above 85%)	5 (Level 5: growth control rate is above 85%)	5 (Level 5: growth control rate is above 85%)	5 (Level 5: growth control rate is above 85%)
C[C@@H](O/N=C/c1cc(-n2c(=O)n(C)c(=S)n(C)c2=O)c(F)cc1Cl)C(=O)OCC1CC1 [9(R)]	5 (Level 5: growth control rate is above 85%)	5 (Level 5: growth control rate is above 85%)	5 (Level 5: growth control rate is above 85%)	5 (Level 5: growth control rate is above 85%)	5 (Level 5: growth control rate is above 85%)	5 (Level 5: growth control rate is above 85%)
C[C@@H](O/N=C/c1cc(-n2c(=O)n(C)c(=S)n(C)c2=O)c(F)cc1Cl)C(=O)OCCF [10(R)]	5 (Level 5: growth control rate is above 85%)	5 (Level 5: growth control rate is above 85%)	5 (Level 5: growth control rate is above 85%)	5 (Level 5: growth control rate is above 85%)	5 (Level 5: growth control rate is above 85%)	5 (Level 5: growth control rate is above 85%)
C[C@@H](O/N=C/c1cc(-n2c(=O)n(C)c(=S)n(C)c2=O)c(F)cc1Cl)C(=O)OCCCF [11(R)]	5 (Level 5: growth control rate is above 85%)	5 (Level 5: growth control rate is above 85%)	5 (Level 5: growth control rate is above 85%)	5 (Level 5: growth control rate is above 85%)	5 (Level 5: growth control rate is above 85%)	5 (Level 5: growth control rate is above 85%)
C[C@@H](O/N=C/c1cc(-n2c(=O)n(C)c(=S)n(C)c2=O)c(F)cc1Cl)C(=O)OCCCC(F)(F)F [12(R)]	5 (Level 5: growth control rate is above 85%)	5 (Level 5: growth control rate is above 85%)	5 (Level 5: growth control rate is above 85%)	5 (Level 5: growth control rate is above 85%)	5 (Level 5: growth control rate is above 85%)	5 (Level 5: growth control rate is above 85%)
COCCOC(=O)[C@@H](C)O/N=C/c1cc(-n2c(=O)n(C)c(=S)n(C)c2=O)c(F)cc1Cl [14(R)]	5 (Level 5: growth control rate is above 85%)	5 (Level 5: growth control rate is above 85%)	4 (Level 4: growth control rate is greater than or equal to 60% and less than 85%)	5 (Level 5: growth control rate is above 85%)	5 (Level 5: growth control rate is above 85%)	5 (Level 5: growth control rate is above 85%)
CCOC(=O)COC(=O)[C@@H](C)O/N=C/c1cc(-n2c(=O)n(C)c(=S)n(C)c2=O)c(F)cc1Cl [17(R)]	5 (Level 5: growth control rate is above 85%)	5 (Level 5: growth control rate is above 85%)	5 (Level 5: growth control rate is above 85%)	5 (Level 5: growth control rate is above 85%)	5 (Level 5: growth control rate is above 85%)	5 (Level 5: growth control rate is above 85%)
CC(C)=NOC(=O)[C@@H](C)O/N=C/c1cc(-n2c(=O)n(C)c(=S)n(C)c2=O)c(F)cc1Cl [20(R)]	5 (Level 5: growth control rate is above 85%)	5 (Level 5: growth control rate is above 85%)	5 (Level 5: growth control rate is above 85%)	5 (Level 5: growth control rate is above 85%)	5 (Level 5: growth control rate is above 85%)	5 (Level 5: growth control rate is above 85%)
C[C@@H](O/N=C/c1cc(-n2c(=O)n(C)c(=S)n(C)c2=O)c(F)cc1Cl)C(=O)OCC1CCCO1 (stereo partly drawn) [24(R)]	5 (Level 5: growth control rate is above 85%)	5 (Level 5: growth control rate is above 85%)	5 (Level 5: growth control rate is above 85%)	5 (Level 5: growth control rate is above 85%)	5 (Level 5: growth control rate is above 85%)	5 (Level 5: growth control rate is above 85%)
C[C@@H](O/N=C/c1cc(-n2c(=O)n(C)c(=S)n(C)c2=O)c(F)cc1Cl)C(=O)OCc1ccco1 [26(R)]	5 (Level 5: growth control rate is above 85%)	5 (Level 5: growth control rate is above 85%)	5 (Level 5: growth control rate is above 85%)	5 (Level 5: growth control rate is above 85%)	5 (Level 5: growth control rate is above 85%)	5 (Level 5: growth control rate is above 85%)
C[C@@H](O/N=C/c1cc(-n2c(=O)n(C)c(=S)n(C)c2=O)c(F)cc1Cl)C(=O)OCc1ccccc1 [42(R)]	5 (Level 5: growth control rate is above 85%)	5 (Level 5: growth control rate is above 85%)	4 (Level 4: growth control rate is greater than or equal to 60% and less than 85%)	5 (Level 5: growth control rate is above 85%)	5 (Level 5: growth control rate is above 85%)	5 (Level 5: growth control rate is above 85%)
C[C@@H](O/N=C/c1cc(-n2c(=O)n(C)c(=S)n(C)c2=O)c(F)cc1Cl)C(=O)OCc1cccnc1 [59(R)]	5 (Level 5: growth control rate is above 85%)	5 (Level 5: growth control rate is above 85%)	4 (Level 4: growth control rate is greater than or equal to 60% and less than 85%)	5 (Level 5: growth control rate is above 85%)	5 (Level 5: growth control rate is above 85%)	5 (Level 5: growth control rate is above 85%)
C[C@@H](O/N=C/c1cc(-n2c(=O)n(C)c(=S)n(C)c2=O)c(F)cc1Cl)C(=O)OCc1ccncc1 [60(R)]	5 (Level 5: growth control rate is above 85%)	5 (Level 5: growth control rate is above 85%)	4 (Level 4: growth control rate is greater than or equal to 60% and less than 85%)	5 (Level 5: growth control rate is above 85%)	5 (Level 5: growth control rate is above 85%)	5 (Level 5: growth control rate is above 85%)
CC[C@@H](O/N=C/c1cc(-n2c(=O)n(C)c(=S)n(C)c2=O)c(F)cc1Cl)C(=O)OC [72(R)]	5 (Level 5: growth control rate is above 85%)	5 (Level 5: growth control rate is above 85%)	5 (Level 5: growth control rate is above 85%)	5 (Level 5: growth control rate is above 85%)	5 (Level 5: growth control rate is above 85%)	5 (Level 5: growth control rate is above 85%)
CCOC(=O)[C@H](O/N=C/c1cc(-n2c(=O)n(C)c(=S)n(C)c2=O)c(F)cc1Cl)C1CC1 [76(R)]	5 (Level 5: growth control rate is above 85%)	5 (Level 5: growth control rate is above 85%)	5 (Level 5: growth control rate is above 85%)	5 (Level 5: growth control rate is above 85%)	5 (Level 5: growth control rate is above 85%)	5 (Level 5: growth control rate is above 85%)
